Measurements: ChEMBL document CHEMBL1201862, “PubChem BioAssay data set” (2004)
Activity calls are given as the source filed them.

What was measured:
P388 = experiment: cells; assay type: functional; conditions: Mus musculus
P388/ADR = experiment: cells; assay type: functional; conditions: Mus musculus
SN12K1 = experiment: cells; assay type: functional; conditions: Homo sapiens
[1] = molecular target: T1, High affinity choline transporter 1 (Homo sapiens, UniProt Q9GZV3); experiment: human choline transporter blockers, potency – cell-based, 10-point CRC, membrane potential dye, dose response (AID 588401); assay type: functional;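 further: membrane potential dye fluorescence of choline-evoked depolarization via CHT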
T1 sequence (Q9GZV3 whole entry): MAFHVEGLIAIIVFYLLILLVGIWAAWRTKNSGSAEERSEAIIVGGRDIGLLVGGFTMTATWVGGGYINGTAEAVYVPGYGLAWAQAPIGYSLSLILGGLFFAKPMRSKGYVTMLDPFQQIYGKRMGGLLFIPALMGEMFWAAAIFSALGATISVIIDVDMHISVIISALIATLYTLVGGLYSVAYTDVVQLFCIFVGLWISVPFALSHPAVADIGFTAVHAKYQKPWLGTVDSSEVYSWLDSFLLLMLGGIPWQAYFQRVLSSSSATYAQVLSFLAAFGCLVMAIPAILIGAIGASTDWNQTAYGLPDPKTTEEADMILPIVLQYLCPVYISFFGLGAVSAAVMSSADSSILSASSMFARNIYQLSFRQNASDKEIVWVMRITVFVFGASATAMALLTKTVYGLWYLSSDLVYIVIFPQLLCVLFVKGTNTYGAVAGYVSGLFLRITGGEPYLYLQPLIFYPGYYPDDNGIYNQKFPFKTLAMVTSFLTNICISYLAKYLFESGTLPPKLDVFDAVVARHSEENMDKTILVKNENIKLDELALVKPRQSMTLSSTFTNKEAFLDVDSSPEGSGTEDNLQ

[2] = molecular target: T1, High affinity choline transporter 1; experiment: human choline transporter blockers, potency – cell-based, 5-point CRC, membrane potential dye, dose response (AID 504840); assay type: functional
[3] = Luminescence Cell-Based Dose Confirmation HTS to Identify Inhibitors of Platelet Dense Granule Release. [Related pubchem assays: 1663 (Primary HTS), 1678 (Summary of Project)]; assay type: functional
[4] = molecular target: Luciferin 4-monooxygenase (Photinus pyralis, UniProt P08659); experiment: inhibition of purified Photinus pyralis luciferase – biochemical, luminescence, dose response (AID 1891)
Luciferin 4-monooxygenase, sequence (P08659 whole entry): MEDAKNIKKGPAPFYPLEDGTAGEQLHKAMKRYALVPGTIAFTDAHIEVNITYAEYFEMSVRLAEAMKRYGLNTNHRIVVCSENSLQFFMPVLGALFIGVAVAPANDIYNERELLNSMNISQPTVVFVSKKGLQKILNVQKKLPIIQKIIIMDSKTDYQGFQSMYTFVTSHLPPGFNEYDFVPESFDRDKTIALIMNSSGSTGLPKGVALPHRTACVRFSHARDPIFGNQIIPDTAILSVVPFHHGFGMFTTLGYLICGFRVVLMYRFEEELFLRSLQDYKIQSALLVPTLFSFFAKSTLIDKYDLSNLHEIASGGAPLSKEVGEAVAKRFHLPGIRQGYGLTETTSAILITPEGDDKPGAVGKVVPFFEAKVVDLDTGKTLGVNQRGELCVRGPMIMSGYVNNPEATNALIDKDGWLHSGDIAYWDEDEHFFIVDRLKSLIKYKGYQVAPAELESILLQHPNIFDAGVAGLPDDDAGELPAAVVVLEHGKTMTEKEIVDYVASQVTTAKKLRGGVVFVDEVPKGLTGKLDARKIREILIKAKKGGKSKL

BJ [5] = experiment: cells; assay type: functional, cell-based; conditions: Homo sapiens
BJ [6] = experiment: BJ-TERT-LT-ST fibroblast viability loss – cell-based, RAS-independent, luminescence, dose response (AID 1935); assay type: functional; conditions: Homo sapiens;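 further: BJ fibroblasts immortalized with TERT plus LT and ST oncogenes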
[7] = molecular target: Heat shock protein HSP 90-alpha (Homo sapiens, UniProt P07900); assay type: functional, organism-based
HSP90 = HSP90 (Plasmodium falciparum 3D7, UniProt Q8IL32); assay type: functional, organism-based
HSP90, sequence (Q8IL32 whole entry): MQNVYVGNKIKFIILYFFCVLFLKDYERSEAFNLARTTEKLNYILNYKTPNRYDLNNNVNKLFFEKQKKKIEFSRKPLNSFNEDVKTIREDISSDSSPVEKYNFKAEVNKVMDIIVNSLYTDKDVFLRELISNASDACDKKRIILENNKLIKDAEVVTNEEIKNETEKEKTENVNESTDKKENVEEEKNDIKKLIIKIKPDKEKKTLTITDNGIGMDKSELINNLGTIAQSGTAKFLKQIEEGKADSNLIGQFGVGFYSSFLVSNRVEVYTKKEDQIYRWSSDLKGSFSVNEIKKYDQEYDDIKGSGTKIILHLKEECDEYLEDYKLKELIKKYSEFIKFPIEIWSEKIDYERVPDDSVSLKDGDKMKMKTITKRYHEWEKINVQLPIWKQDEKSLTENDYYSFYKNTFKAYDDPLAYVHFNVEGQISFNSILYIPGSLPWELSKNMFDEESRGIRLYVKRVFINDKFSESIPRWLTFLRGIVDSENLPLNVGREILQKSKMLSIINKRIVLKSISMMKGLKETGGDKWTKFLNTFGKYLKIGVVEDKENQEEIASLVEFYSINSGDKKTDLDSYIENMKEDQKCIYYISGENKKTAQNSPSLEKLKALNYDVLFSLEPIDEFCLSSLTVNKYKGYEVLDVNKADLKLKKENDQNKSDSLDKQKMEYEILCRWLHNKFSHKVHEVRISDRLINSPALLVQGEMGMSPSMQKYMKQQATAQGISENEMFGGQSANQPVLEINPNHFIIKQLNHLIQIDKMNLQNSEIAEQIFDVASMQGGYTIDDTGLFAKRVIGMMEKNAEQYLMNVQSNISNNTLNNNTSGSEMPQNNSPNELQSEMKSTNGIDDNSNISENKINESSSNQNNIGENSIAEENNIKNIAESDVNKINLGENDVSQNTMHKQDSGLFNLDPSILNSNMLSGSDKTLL

BJ [8] = experiment: BJ-TERT fibroblast viability loss – cell-based, RAS-independent, luminescence, dose response (AID 1933); assay type: functional; conditions: Homo sapiens
[9] = DRD fibroblast viability loss – cell-based, non-viral oncogenic, luminescence, dose response (AID 1934); assay type: functional; conditions: Homo sapiens
[10] = molecular target: T2, Sentrin-specific protease 8 (Homo sapiens, UniProt Q96LD8); experiment: inhibition of human SENP8 cleavage activity – biochemical, luminescence, SAR follow-up (AID 504501); assay type: functional
T2 sequence (Q96LD8 whole entry): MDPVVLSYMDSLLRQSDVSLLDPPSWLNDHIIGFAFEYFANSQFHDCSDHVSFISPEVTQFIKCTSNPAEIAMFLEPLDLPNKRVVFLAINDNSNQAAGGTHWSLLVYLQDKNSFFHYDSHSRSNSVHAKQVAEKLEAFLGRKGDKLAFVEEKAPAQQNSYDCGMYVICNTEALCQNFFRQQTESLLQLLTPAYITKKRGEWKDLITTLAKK

[11] = molecular target: T3, Sentrin-specific protease 6 (Homo sapiens, UniProt Q9GZR1); experiment: SAR Analysis of small molecule inhibitors of Sentrin-specific protease 6 (SENP6) using a Luminescent assay. [Related pubchem assays (depositor defined):AID2582, AID2599]; assay type: functional
T3 sequence (Q9GZR1 whole entry): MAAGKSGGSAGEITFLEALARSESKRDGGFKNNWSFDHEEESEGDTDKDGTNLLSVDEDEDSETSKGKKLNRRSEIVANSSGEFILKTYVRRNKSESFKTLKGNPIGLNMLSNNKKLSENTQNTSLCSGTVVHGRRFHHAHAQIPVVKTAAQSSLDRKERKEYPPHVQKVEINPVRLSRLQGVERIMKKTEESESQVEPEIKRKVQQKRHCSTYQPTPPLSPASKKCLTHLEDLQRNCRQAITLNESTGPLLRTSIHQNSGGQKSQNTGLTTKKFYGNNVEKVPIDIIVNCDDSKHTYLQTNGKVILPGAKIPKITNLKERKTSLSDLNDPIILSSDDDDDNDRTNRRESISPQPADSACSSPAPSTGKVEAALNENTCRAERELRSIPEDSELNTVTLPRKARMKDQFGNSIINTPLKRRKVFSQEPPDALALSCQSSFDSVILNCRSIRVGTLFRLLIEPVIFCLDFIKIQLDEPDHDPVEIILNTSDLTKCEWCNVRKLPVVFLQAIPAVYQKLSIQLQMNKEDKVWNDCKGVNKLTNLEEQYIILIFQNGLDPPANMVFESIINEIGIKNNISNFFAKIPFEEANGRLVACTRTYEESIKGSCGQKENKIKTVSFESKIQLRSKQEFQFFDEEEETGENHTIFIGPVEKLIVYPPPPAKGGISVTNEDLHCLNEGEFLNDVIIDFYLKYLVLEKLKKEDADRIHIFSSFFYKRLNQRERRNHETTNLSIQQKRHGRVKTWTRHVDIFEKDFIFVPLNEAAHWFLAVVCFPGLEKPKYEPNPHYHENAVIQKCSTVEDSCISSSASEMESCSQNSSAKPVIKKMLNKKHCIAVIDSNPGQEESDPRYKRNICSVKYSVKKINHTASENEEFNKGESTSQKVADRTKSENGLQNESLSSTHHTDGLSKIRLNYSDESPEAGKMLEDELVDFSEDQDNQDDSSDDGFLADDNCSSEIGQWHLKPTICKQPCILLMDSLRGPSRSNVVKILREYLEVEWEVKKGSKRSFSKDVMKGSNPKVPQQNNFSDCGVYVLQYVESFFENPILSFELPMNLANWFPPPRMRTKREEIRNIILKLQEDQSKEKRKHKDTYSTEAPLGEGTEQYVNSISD

[12] = molecular target: T4, Sentrin-specific protease 7 (Homo sapiens, UniProt Q9BQF6); experiment: inhibition of human SENP7 cleavage activity – biochemical, luminescence, SAR follow-up (AID 504497); assay type: functional
T4 sequence (Q9BQF6 whole entry): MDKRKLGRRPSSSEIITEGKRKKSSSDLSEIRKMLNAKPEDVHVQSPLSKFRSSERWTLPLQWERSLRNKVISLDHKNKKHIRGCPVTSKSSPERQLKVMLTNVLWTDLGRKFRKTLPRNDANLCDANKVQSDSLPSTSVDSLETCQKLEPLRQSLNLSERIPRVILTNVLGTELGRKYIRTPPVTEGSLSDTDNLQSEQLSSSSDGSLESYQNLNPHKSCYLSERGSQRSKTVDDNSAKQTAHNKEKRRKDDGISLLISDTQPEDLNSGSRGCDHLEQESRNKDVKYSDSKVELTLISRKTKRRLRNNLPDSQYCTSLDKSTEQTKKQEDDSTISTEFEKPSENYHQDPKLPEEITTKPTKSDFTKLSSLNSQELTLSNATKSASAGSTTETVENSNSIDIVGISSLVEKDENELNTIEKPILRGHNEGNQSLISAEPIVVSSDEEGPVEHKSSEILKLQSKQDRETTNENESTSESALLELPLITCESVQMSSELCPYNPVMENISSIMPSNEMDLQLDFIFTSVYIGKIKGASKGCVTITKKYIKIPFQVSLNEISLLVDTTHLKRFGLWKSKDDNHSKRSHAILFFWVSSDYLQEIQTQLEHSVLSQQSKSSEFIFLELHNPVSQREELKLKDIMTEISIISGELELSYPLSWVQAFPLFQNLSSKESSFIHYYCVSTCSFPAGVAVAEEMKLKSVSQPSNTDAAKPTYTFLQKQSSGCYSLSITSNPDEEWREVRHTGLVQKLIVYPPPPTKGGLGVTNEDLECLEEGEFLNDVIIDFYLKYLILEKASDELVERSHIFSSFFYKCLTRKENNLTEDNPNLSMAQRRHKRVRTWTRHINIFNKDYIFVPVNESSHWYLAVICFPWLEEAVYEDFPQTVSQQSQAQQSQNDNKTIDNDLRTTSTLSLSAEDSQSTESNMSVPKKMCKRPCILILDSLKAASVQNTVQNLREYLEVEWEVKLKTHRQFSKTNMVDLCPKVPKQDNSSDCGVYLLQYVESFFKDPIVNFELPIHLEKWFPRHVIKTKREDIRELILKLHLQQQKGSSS

Caspase-3 = molecular target: T5, Caspase-3 (Homo sapiens, UniProt P42574); experiment: SAR Analysis of small molecule inhibitors of Sentrin-specific proteases (SENPs) using a Caspase-3 Selectivity assay. [Related pubchem assays (depositor defined):AID2540, AID2599, AID434973, AID489001]; assay type: functional
T5 sequence (P42574 whole entry): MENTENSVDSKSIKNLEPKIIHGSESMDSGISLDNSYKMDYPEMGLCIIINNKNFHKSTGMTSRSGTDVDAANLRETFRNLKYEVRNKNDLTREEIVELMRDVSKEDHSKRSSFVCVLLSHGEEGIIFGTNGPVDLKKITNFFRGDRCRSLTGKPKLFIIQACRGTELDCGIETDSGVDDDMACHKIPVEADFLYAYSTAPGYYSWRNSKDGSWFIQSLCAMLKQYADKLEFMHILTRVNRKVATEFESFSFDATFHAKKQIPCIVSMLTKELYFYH

With `Nc1ncnc2c1ncn2C1CCC(CO)O1` (configuration not stated) as the molecule, how does the GI50 (P388) read?
Its GI50 is 98.6 µM (inactive).

And the GI50 (P388/ADR)?
The GI50 was 69.5 µM (inactive).

What about the GI50 (SN12K1) of the same molecule?
Its GI50 is > 62.4 µM (inactive).

Which IC50 [1] does the source give for `O=[N+]([O-])/C(C(=C(Cl)Cl)N1CCN(Cc2ccccc2)CC1)=C1\NCCN1Cc1ccc(Cl)nc1` here?
Its IC50 is 5.39 µM (active).

And the IC50 [2]?
The IC50 was 6.15 µM (active).

With `C(=C\c1nc2ccccc2[nH]1)/c1ccccc1` as the molecule, how does the EC50 [3] read?
Its EC50 is 2.44 µM (active).

And the EC50 [4]?
Its EC50 is 0.949 µM (active).

What about the EC50 (BJ [5]) of the same molecule?
Its EC50 is 8.19 µM (active).

And the EC50 (BJ [6])?
Its EC50 is > 150 µM (inconclusive).

What about the AC50 [7] of the same molecule?
Its AC50 is 44 µM (active).

What about the AC50 (HSP90) of the same molecule?
Its AC50 is 106 µM (active).

And the EC50 (BJ [8])?
Its EC50 is 6.89 µM (active).

What about the EC50 [9] of the same molecule?
The EC50 was 6.84 µM (active).

What does the source list for `O=C(Nc1nc2ccc(Cl)cc2s1)C1CCCCC1`?
IC50 [10]: > 99 µM (inactive); IC50 [11]: > 99 µM (inactive); IC50 [12]: > 99 µM (inactive); IC50 (Caspase-3): > 99 µM (inactive)
